Laboratory results published in patent EP4563586A1, “NEW INHIBITORS OF LRRK2/PP1 INTERACTION” (Université Paris Cité, priority 2023, dated 2025).
Each block holds one molecule with its values, some of them ahead of it. Non-standard residues stand in square brackets, D forms with d. Residues, ends and D or L forms follow the SMILES beside them. No end group written: not given here. Ahx = NCCCCCC(=O)O

Columns and labels:
[1] = Peptide stability in human serum (MALDI-TOF); type: in vitro ADME; settings: for remaining at 24 h, 100 µM: after 24h of incubation at 37°C in human serum, 100 µM (Figure 6), read-out: peptide still present
Experimental: The peptides were incubated at 37°C in 250 µL of human serum (Gibco) for different periods of time. Samples were collected and peptide degradation stopped by freezing at -20°C. The peptide was extracted from samples using the Proteo Miner Protein Enrichment System (Bio-Rad). The percentage of intact peptide was estimated by MS using MALDI-TOFF using the protocol previously described (Bruker Autoflex II) according to the manufacturer's instructions. Measurements were performed in triplicate. MS data were analysed using the software Cliprot tools, Flex analysis, Bruker.

[2] = biological target: T1, Leucine-rich repeat kinase 2 (LRRK2), human (human, UniProt Q5S007 1-2527); assay: PP1 dodecapeptide array on cellulose membrane
T1 construct: Protein as present in MDA-MB231 lysates; also called dardarin
T1 sequence (Q5S007 whole entry R50H/L212S): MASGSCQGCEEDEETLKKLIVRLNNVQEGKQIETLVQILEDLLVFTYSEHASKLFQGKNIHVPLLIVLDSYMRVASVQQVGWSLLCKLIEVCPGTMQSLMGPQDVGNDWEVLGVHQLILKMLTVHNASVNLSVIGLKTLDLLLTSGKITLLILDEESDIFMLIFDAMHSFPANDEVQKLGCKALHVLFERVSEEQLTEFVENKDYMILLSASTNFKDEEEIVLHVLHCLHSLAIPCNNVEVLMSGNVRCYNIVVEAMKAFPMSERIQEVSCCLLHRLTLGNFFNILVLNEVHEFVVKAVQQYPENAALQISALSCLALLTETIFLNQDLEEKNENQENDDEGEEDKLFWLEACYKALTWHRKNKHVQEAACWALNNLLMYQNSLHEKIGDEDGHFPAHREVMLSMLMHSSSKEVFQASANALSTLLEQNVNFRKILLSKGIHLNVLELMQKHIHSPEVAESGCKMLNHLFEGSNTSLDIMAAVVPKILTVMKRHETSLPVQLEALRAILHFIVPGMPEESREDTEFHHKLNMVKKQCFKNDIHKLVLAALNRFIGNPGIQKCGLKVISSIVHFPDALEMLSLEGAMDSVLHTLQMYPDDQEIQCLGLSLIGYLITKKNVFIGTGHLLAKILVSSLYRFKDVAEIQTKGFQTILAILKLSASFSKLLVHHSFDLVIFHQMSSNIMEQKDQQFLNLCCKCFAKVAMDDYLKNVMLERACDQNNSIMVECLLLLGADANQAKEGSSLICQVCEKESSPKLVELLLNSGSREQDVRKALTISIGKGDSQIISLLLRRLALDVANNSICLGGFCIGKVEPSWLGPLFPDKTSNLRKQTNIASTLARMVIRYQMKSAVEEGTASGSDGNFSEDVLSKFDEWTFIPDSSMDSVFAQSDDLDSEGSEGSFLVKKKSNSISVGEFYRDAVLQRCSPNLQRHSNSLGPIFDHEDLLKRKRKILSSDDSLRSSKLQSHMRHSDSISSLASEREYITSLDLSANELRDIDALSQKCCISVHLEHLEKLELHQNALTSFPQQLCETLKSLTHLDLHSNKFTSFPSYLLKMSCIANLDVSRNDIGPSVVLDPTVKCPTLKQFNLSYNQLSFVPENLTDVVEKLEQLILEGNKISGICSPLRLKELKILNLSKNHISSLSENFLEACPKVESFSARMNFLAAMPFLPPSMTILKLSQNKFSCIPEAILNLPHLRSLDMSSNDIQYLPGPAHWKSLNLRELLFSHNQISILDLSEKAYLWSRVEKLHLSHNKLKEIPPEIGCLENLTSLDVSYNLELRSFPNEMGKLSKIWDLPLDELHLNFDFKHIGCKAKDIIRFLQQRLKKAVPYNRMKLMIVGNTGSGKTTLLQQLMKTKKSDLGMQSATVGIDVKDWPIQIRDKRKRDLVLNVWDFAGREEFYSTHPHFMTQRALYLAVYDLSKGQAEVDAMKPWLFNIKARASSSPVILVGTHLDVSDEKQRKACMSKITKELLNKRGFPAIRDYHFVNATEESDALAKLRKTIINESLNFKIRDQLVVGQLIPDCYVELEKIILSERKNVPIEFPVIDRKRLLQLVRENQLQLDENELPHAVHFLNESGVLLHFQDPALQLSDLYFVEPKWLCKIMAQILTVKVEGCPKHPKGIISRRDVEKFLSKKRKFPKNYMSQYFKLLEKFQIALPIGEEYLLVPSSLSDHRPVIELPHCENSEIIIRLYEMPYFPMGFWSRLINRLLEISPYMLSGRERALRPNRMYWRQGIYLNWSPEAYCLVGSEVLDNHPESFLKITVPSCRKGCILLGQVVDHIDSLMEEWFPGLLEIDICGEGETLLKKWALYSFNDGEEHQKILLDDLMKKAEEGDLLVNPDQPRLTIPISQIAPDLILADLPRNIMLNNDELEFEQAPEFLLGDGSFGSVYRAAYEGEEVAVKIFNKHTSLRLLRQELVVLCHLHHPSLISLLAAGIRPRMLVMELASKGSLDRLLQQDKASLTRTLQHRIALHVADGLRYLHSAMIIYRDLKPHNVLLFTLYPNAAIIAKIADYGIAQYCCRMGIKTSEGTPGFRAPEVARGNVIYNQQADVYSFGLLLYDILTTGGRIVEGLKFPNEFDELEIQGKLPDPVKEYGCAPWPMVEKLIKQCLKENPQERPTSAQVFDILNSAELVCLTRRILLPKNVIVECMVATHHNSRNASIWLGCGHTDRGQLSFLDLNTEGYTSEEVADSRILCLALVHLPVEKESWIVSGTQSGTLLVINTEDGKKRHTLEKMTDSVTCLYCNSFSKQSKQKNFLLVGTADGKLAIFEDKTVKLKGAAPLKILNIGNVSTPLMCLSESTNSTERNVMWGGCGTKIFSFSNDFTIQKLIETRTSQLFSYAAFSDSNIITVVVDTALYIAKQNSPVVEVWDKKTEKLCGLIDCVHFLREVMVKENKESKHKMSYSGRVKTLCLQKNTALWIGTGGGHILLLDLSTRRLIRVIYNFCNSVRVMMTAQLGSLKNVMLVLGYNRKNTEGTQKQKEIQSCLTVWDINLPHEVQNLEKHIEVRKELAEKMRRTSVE

remaining at 24 h, 100 µM [1]: > 90%
stability in serum (resistance to proteases) ([1]; human serum, 37°C, result in words): particularly high
Molecule: CC[C@H](C)[C@H](NC(=O)[C@H](CCC(=O)O)NC(=O)[C@H](CC(C)C)NC(=O)[C@H](CC(C)C)NC(=O)[C@H](CCCNC(=N)N)NC(=O)[C@H](CC(N)=O)NC(=O)[C@@H](NC(=O)[C@H](CC(C)C)NC(=O)[C@H](CCCNC(=N)N)NC(=O)[C@H](CO)NC(=O)[C@H](Cc1c[nH]c2ccccc12)NC(=O)[C@H](Cc1ccccc1)NC(=O)CN)[C@@H](C)CC)C(=O)NCCCCCC(=O)N[C@@H](CO)C(=O)N[C@@H](CCCNC(=N)N)C(=O)N[C@@H](CCCNC(=N)N)C(=O)N[C@H](C(=O)N[C@H](C(=O)N[C@@H](CO)C(=O)N[C@@H](CCCNC(=N)N)C(=O)N[C@@H](C)C(=O)N[C@@H](CCCCN)C(=O)N[C@@H](CC(C)C)C(=O)N[C@@H](C)C(=O)N[C@@H](C)C(=O)N[C@@H](C)C(=O)N[C@@H](CC(C)C)C(=O)O)[C@@H](C)CC)C(C)C [Peptide 1, GFWSRLINRLLEI- AHx -SRRVISRAKLAAAL] (H-GFWSRLINRLLEI[Ahx]SRRVISRAKLAAAL-OH)

remaining at 24 h, 100 µM [1]: > 90%
Molecule: GFWSRLINRLLEIGGSSRRVISRAKLAAAL [Peptide 2, GFWSRLINRLLEI- GGS -SRRVISRAKLAAAL]

binding result [2]: binds
B1: Peptide 21 (NPGGRPITPPRNSAKAKK), fragment of PP1 (peptide)
peptide: NPGGRPITPPRNSAKAKK
notes: Synthetic peptide, isolated fragment of PP1

binding result [2]: binds
B2: Peptide 20 (AEVVAKFLHKHDLDLICRAH), fragment of PP1 (peptide)
peptide: AEVVAKFLHKHDLDLICRAH
notes: as for B1

binding result [2]: binds
B3: Peptide 19 (VQGSRPGKNVQLTENE), fragment of PP1 (peptide)
peptide: VQGSRPGKNVQLTENE
notes: as for B1
